Data set [1] deals with HCT116 (human colon cancer cell line). The data set is described as follows: Antiproliferative MTT assay, HCT116. It is filed as cell-based. The settings on record: 72 h incubation, mean ± SD. The protocol:
(§1) The antiproliferative activity of the compounds according to the invention was determined by the MTT assay on the following cell lines: MCF7 (human breast cancer cell line), HCT116 (human colon cancer cell line), and CCL186 (normal human diploid embryonic lung fibroblast). […] MCF7 and CCL186 cells were cultured in Eagle's Minimum Essential Medium (EMEM) with 1 mM sodium pyruvate, 1.5 g/L sodium bicarbonate, 2 mM L-glutamine supplemented with 10% FBS and 0.01% antibiotics. HCT116 cells were cultured in McCoy's 5A Medium with 2.2 g/L sodium bicarbonate supplemented with […] and 0.01% antibiotics. Cells were plated at the following densities: 10000 cells/well (MCF7), 4000 cells/well (HCT116), 5000 cells/well (CCL186). They were grown for 24 h in a 96-well plate, with 100 μl of corresponding medium in each well. The test compounds were prepared in DMSO and diluted to a series of concentrations with medium. Not more than 1% DMSO (final concentration) was present in each well. The test compounds were incubated with the cells for 72 h, after which 100 μl MTT solution (0.5 mg/ml in 1× PBS) was added for 3 h and the cells lysed to release the formazan product. The latter was dissolved in DMSO (150 μl) and absorbance determined within 30 min at 590 nm on a microtitre plate reader. Cell survival was given by the expression:
(§2) Cell survival (%)=[(Acells+test compound−Ablank)/(Auntreated cells−Ablank)]×100
(§3) where A is the absorbance of formazan measured at 590 nm in the test (Acells+test compound), control (Auntreated cells) or blank (Ablank) wells. Each concentration of test compound was evaluated on 3 separate occasions. […] The MTT assay was also carried out on Hepa1c1c7 cells for the purpose of determining cytotoxicity of test compounds. The same procedure was adopted except that the incubation period of compound with cells was 48 h, instead of 72 h.
The compounds were initially screened at a fixed concentration of 10 μM on the human cancer cell lines HCT116 and MCF7 cells.

Data set [2] concerns the target T1, Insulin R (Homo sapiens, UniProt P06213).
T1 construct: endogenous in cells; host or cells: HuH7
Description: Human phospho-RTK array, HuH7: Insulin R. The data set is classed as cell-based. Particulars: 24 h, untreated 0.74. The protocol:
Kinase phosphorylation changes were determined with human phospho-RTK array.
Cells harvesting, hybridization with RTK array and incubation with anti-phosphotyrosine were performed according to manufacturer's instruction. Imaging and quantification of the spots intensities was with Fujifilm LAS-3000 (Tokyo, Japan). Average signal of the duplicate spots for each RTK was determined.

The test system of data set [3] is Hep3B, Hs817T, PLC/PRF/5 and SK-Hep 1. Description: Cell Titer-Glo viability, panel of 4 additional HCC cell lines. It is filed as cell-based, human. The method, then: The efficacy of compound 47 against HCC proliferation was tested on a wider panel of HCC cell lines: Hep3B ([…]), Hs817T (▪), PLC/PRF/5 (▴) and SK-Hep 1 (▾), as determined by Cell Titer-Glo assay.
(§4) Cells were plated at 5000-7000 cells/per well and incubated for 24 h before treatment. […] Cell Titer-Glo (Promega, Madison, Wis.) assay was performed according to manufacturer's instruction with luminescence detected on SpectraMax M5 (Molecular Devices, Sunnyvale, Calif.). Data was expressed as percentage of viability vs. vehicle-treated controls.
Accordingly, Compound 47 was screened against a larger panel of 4 additional HCC cell lines.
In general terms: Cellular ATP, detected with luciferase, serves as a proxy for viable cell number.

The subject of data set [4] is CCL186 (normal human diploid embryonic lung fibroblast). The data set is described as follows: Antiproliferative MTT assay, CCL186. It is filed as cell-based. The settings on record: for IC50: Homo sapiens, CCL186, MTT, 72 h incubation, mean ± SD, n = 3, read-out: IC50 CCL-186; for selectivity ratio: IC50 CCL186/IC50 MCF7 or IC50 CCL186/IC50 HCT116: normal vs cancer cell line. The method, then:
as §1, §2, §3
A general note: Tetrazolium assays rely on reduction of a dye to a coloured formazan, in cell work by metabolically active cells.

Data set [5] relates to THLE2. The data set is described as follows: Cell viability assay (Cell Titer-Glo), THLE2 normal hepatocyte cell line. It is filed as cell-based. Particulars: Homo sapiens, THLE-2, 72 h, read-out: IC50 THLE2. The method, then:
as §4
The anti-cancer potential of these compounds against HCC were tested using a phenotypic assay where compounds were screened over 100-fold concentration range (0.1 to 10 μM) using two representative liver cancer cell lines, HepG2 and HuH7. Additionally, THLE2 was employed as normal hepatocyte cell line to differentiate anti-cancer potential from non-specific cytotoxicities.
Cell viability assay shown in FIG. 2 was analyzed by Prism5 for the determination of respective IC50 values.

Data set [6] has as its system CYP1A1. Description: 7-ethoxyresorufin O-deethylase (EROD) assay, CYP1A1 induction in Hepa1c1c7 cells. It is filed as cell-based, murine. Particulars: 48 h. The protocol: Hepa1c1c7 cells were plated at a density of 10000 cells per well in a 96-well plate and cultured for 24 h. A stock solution of test compound was prepared in DMSO and serially diluted with medium to give the desired concentration in the well. The final concentration of DMSO was 0.5% v/v. The cells were incubated with test compound for 48 h, after which the medium was removed, the well washed with 200 μl of 1×phosphate-buffered saline solution (PBS) and then incubated with 5 μM 7-ethoxyresorufin and 2 mM salicylamide in 200 μl of medium at 37° C., 40 min. Readings were taken at λexcitation of 530 nm and λemission of 590 nm on a fluorometer. Fluorescence (if any) of the test compound was determined at the same wavelengths to take into account its contribution to the observed readings. Readings of empty wells (no cells, “blank”) and wells with Hepa1c1c7 cells in medium containing 0.5% DMSO but without test compound (“control”) were also determined. TCDD, a strong inducer of CYP1A1 activity, as well as BNF and sulforaphane were used as controls.
CYP1A1 induction activity was given by the expression:
Degree of induction=FCells+test compound−FBlank/FControl−FBlank
The EROD assay was used for this purpose (Burke, M. D.; Mayer, R. T., Drug Metab Dispos 1974, 2, 583). EROD activity describes the rate at which CYP1A1 caused the O-deethylation of 7-ethoxyresorufin to resorufm. […] This ratio was determined for compounds at concentrations that were approximately 4 times their CD values. A fixed concentration was not used here because it would be difficult to select this concentration in view of the large variation in NQO1 induction activities. The quotient of NQO1 and CYP1A1 induction ratios (ratio determined at the same concentration) was also obtained for each compound. Values >1 would imply greater induction of NQO1 relative to CYP1A1.

Setting [7] is: Homo sapiens, HCT-116, 72 h, n = 3.

Where two headings read alike, the source gives them in different places.

T1 sequence (P06213 28-1382): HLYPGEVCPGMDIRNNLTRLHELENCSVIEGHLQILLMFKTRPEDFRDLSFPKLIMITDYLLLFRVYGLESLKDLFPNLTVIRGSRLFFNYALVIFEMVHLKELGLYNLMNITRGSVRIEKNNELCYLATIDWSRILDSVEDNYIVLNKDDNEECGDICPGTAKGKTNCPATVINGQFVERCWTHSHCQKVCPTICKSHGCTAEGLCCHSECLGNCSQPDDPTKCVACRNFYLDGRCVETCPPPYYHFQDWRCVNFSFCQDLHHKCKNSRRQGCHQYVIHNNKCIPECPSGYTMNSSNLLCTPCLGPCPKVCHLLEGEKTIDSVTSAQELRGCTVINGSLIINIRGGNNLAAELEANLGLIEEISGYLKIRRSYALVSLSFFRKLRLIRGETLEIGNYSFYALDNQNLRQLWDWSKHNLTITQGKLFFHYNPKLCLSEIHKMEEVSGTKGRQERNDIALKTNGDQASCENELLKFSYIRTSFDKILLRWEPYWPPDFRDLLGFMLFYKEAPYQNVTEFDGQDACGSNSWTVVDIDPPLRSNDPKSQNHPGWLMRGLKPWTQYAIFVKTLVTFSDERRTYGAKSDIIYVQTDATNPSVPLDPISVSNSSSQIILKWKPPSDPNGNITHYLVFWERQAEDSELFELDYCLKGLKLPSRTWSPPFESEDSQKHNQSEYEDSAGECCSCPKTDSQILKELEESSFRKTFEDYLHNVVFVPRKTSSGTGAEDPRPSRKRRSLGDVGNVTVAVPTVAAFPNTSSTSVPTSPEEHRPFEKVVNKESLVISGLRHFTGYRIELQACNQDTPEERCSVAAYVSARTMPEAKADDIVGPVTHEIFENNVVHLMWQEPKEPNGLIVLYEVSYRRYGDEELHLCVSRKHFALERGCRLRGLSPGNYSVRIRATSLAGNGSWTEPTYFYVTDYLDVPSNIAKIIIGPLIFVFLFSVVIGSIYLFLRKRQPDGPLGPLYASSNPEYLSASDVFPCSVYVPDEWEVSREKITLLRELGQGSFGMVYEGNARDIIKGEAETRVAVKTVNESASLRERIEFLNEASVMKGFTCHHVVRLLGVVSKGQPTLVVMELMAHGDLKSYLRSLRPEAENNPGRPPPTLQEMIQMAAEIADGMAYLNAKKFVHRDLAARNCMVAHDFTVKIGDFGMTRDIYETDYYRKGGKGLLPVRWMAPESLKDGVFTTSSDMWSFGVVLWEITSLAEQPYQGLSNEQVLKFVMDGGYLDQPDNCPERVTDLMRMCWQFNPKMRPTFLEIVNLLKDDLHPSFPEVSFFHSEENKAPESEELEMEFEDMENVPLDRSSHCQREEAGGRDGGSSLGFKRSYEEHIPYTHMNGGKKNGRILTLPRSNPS

For `O=C1Nc2cc(Cl)ccc2/C1=C\c1cccc(C(F)(F)F)c1` [Compound 47, (E)-6-Chloro-3-(3-(trifluoromethyl)benzylidene)indolin-2-one], the IC50 (commonly the concentration that gives 50% inhibition) in data set [1] (n = 3, read-out: IC50 HCT-116) was 7.5 ± 0.4 µM; in data set [1] (setting [7]) it was less than 10 µM; in data set [4], 6.6 ± 0.5 µM; in data set [5] it was more than 10 µM. Further, the “Insulin R Phosphorylation” value in data set [2] (serum starved HuH7, 1 μM) was determined as 0.75 Arbitrary units; in data set [2] (serum starved HuH7, 5 μM), 0.4 Arbitrary units; in data set [2] (serum starved HuH7, 10 μM), 0.38 Arbitrary units. The “IC50 in 3 of the 4 additional HCC cell lines tested” value in data set [3] was “low micromolar or submicromolar”. Further, in data set [4], the “selectivity ratio: IC50 CCL186/IC50 MCF7 or IC50 CCL186/IC50 HCT116” value is approximately 1.
With `O=C1Nc2cc(F)ccc2/C1=C\c1cccc(C(F)(F)F)c1` [Compound 46, (E)-6-Fluoro-3-(3-(trifluoromethyl)benzylidene)indolin-2-one], the IC50 in data set [1] (n = 3, read-out: IC50 HCT-116) was 8.9 ± 0.3 µM; in data set [1] (setting [7]), less than 10 µM; in data set [4], 7.5 ± 0.7 µM; in data set [5], more than 10 µM. Also, the CYP1A1 induction ratio in data set [6] (0.05 μM) came to 1.23 ± 0.08. Moreover, the “selectivity ratio: IC50 CCL186/IC50 MCF7 or IC50 CCL186/IC50 HCT116” value in data set [4] is approximately 1.
Take `COc1cccc(/C=C2/C(=O)Nc3cc(OC)ccc32)c1` [Compound 42, (E)-6-Methoxy-3-(3-methoxybenzylidene)indolin-2-one]: the IC50 in data set [1] (n = 3, read-out: IC50 HCT-116) came to 1.3 ± 0.4 µM; in data set [4] it was 1.8 ± 0.2 µM; in data set [5], 1.2 µM. The CYP1A1 induction ratio in data set [6] (0.5 μM) is 1.13 ± 0.01.
With `COc1ccc2c(c1)NC(=O)/C2=C/c1ccc(OC)c(O)c1` [Compound 45, (E)-3-(3-Hydroxy-4-methoxybenzylidene)-6-methoxyindolin-2-one], the 50% inhibitory concentration (IC50) in data set [1] (n = 3, read-out: IC50 HCT-116) was 7.8 ± 0.9 µM; in data set [1] (setting [7]), less than 10 µM; in data set [4], 11.3 ± 0.4 µM; in data set [5], more than 10 µM. Moreover, in data set [6] (1 μM), the CYP1A1 induction ratio turned out to be 1.05 ± 0.01.
Consider `COc1ccc2c(c1)NC(=O)/C2=C/c1cccc(C(F)(F)F)c1` [Compound 48, (E)-6-Methoxy-3-(3-(trifluoromethyl)benzylidene)indolin-2-one], for which the IC50 in data set [1] (n = 3, read-out: IC50 HCT-116) came out at 3.8 ± 0.6 µM; in data set [4] it was 5.4 ± 0.3 µM; in data set [5], 3.6 µM. Also, the CYP1A1 induction ratio in data set [6] (0.5 μM) was found to be 1.36 ± 0.07.

Source of the values: patent US20110269812A1, “NOVEL BENZYLIDENE-INDOLINONE AND THEIR MEDICAL AND DIAGNOSTIC USES” (Agency for Science, Technology and Research, priority 2008, published 2011).
